Data from patent US9101579B2, “Inhibition of drug resistant cancer cells” (Celgene Corporation, priority 2012, dated 2015).
Entries after “also recorded” stand apart in the source; their conditions may differ.

What was measured:
M14 melanoma cell line = test: Drug treatment and CellTiter-Glo cell viability assay, emergence of drug-tolerant expanded persisters (DTEP) in M14 cells; type: cell-based; conditions: for emergence of DTEPs, continuous co-treatment: 2 μM AZ628 + 0.5 nM (sub-lethal) romidepsin every 3 days, continuous schedule 45 days, FIG. 1
Procedure: (§1) The M14 melanoma and HCC827 non-small cell lung cancer cell (NSCLC) cell lines were purchased from American Type Culture Collection (ATCC; Manassas, Va.). Cells were cultured at 37° C./5% CO2 in RPMI-1640 medium (ATCC) supplemented with 10% FBS. AZ628 and Erlotnib were purchased from Selleck Chemicals (Houston, Tex.) and reconstituted in DMSO to 20 mM. Romidepsin (Celgene Corporation) was reconstituted in DMSO to 10 μM. All drugs were stored at −30° C.
(§2) Romidepsin was used at a final concentration of 1 nM for HCC827 cells and 0.5 nM for M14 cells. Conditioned media were replaced with fresh drug-containing media every three days (“continuous Q3D” schedule). The Q3D schedule was evaluated continuously over a period of 27-45 days, and also for shorter durations ranging from 3-21 days.
(§3) Cell viability was monitored periodically over 27-45 days using CellTiter-Glo (CTG). On select days, an equal volume (1 mL) of CTG was added to each well of the 24-well plates. The plates, wrapped with aluminum foil, were incubated on a shaking platform for 10 minutes. A 200 μL aliquot from each well was transferred to a new well of 96-well plates. The SpectraMax L (Molecular Devices; Sunnyvale, Calif.) was used to measure luminescence.

[1] = system: HCC827 non-small cell lung cancer cell line; test: Drug treatment and CellTiter-Glo cell viability assay, emergence of drug-tolerant expanded persisters (DTEP) in HCC827 cells; type: cell-based
Procedure: as §1, §2, §3
Conditioned medium was replaced with fresh drug-containing medium every three days. Starting on day 12, the drug-containing medium also included 1 nM romidepsin. Cell viability was monitored on days 0, 15, and 37 using CellTiter-Glo (CTG).

## Cc1ccc(NC(=O)c2cccc(C(C)(C)C#N)c2)cc1Nc1ccc2ncn(C)c(=O)c2c1 [AZ628]
M14 melanoma cell line; M14 cells, continued treatment with AZ628 2 μM every 3 days
  outgrowth of DTPs into DTEPs under continued AZ628 alone: yielding a large population of AZ628-resistant cells
M14 melanoma cell line; M14 cells, high concentration (100×IC50; 2 μM) AZ628, after 9 days
  cell death on treatment with AZ628 alone: Massive cell death

## C#Cc1cccc(Nc2ncnc3cc(OCCOC)c(OCCOC)cc23)c1 [Erlotinib]
[1]; NSCLC (HCC827) cells, high concentration (100×IC50; 2 μM) Erlotinib, after 9 days
  cell death on treatment with Erlotinib alone: Massive cell death

## C/C=C1\NC(=O)[C@H]2CSSCC/C=C/[C@H](CC(=O)N[C@H](C(C)C)C(=O)N2)OC(=O)[C@H](C(C)C)NC1=O [romidepsin, (1S,4S,7Z,10S,16E,21R)-7-ethylidene-4,21-bis(1-methylethyl)-2-oxa-12,13-dithia-5,8,20,23-tetrazabicyclo[8.7.6]tricos-16-ene-3,6,9,19,22-pentone]
M14 melanoma cell line; M14 cells treated with 2 μM AZ628, romidepsin 0.5 nM every 3 days for 2 weeks, FIGS. 3A and 3B
  emergence of DTEP, reduced romidepsin schedule: prevented the emergence of DTEP
M14 melanoma cell line; M14 cells treated with 2 μM AZ628, romidepsin 0.5 nM every 3 days, FIGS. 3A and 3B
  number of romidepsin doses sufficient to prevent emergence of DTEP: 5 doses
M14 melanoma cell line; M14 cells
  emergence of DTEPs, continuous co-treatment: prevented the DTEP emergence
M14 melanoma cell line; M14 cells, listed as romidespin
  emergence of DTEPs, continuous co-treatment: prevented the emergence of DTEPs
M14 melanoma cell line; M14 cells, 2 μM AZ628, higher romidepsin concentration (0.5, 2 or 10 nM tested), 6-hour exposure on continuous schedule, FIG. 4A
  DTEP growth, short (6-hour) romidepsin exposure (wash-out): sufficient to prevent DTEP growth
[1]; HCC827 cells pretreated with 2 μM Erlotinib every 3 days, 1 nM romidepsin added from day 12, viability on days 0, 15, 37, FIG. 5
  Erlotinib-resistant cells after delayed addition of romidepsin: eliminated Erlotinib-resistant HCC827 cells
[1]; HCC827 cells treated with 2 μM Erlotinib, romidepsin 1.0 nM every 3 days for 2 weeks, FIG. 3C
  emergence of DTEPs, reduced romidepsin schedule: prevented the emergence of DTEPs
[1]; HCC827 cells treated with 2 μM Erlotinib, romidepsin 1.0 nM every 3 days, FIG. 3C
  number of romidepsin doses sufficient to prevent emergence of DTEP: 4 doses
[1]; HCC827 cells, 2 μM Erlotinib + 1.0 nM (sub-lethal) romidepsin every 3 days, continuous schedule 27 days, FIG. 2
  emergence of DTEPs, continuous co-treatment: prevented the emergence of DTEPs; also recorded: prevented the DTEP emergence
[1]; HCC827 cells, 2 μM Erlotinib, higher romidepsin concentration (1, 5 and 20 nM tested), 6-hour exposure on continuous schedule, FIG. 4B
  DTEP growth, short (6-hour) romidepsin exposure (wash-out): sufficient to prevent DTEP growth
